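Step 1: Grow cells in 96-well plates. Step 2: Expose to compound for 48 hours at 5 concentrations. Step 3: Interpolate endpoints linearly; if unreached, use highest concentration. GI50: concentration for 50% inhibition of growth.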 Active and inactive are the calls of the source. Cut-off read from the data, not from the text of the source: active = GI50 up to about 1.1 µM and inactive = higher. Some results are limits rather than exact numbers.

Test systems include A498; A549; EKVX; HCT-116; HOP-18; HT-29; KM-20L2; Malme-3M; NCI-H226; NCI-H23; SF-295; SF-539; SK-MEL-2; SK-OV-3; SN12C; SNB-75; SNB-78; U-251; K562.
Common to all, as to experiment: inhibition of tumour cell growth, NCI panel, 48 h

`CN1CCN(CCCN2c3ccccc3Sc3ccc(C(F)(F)F)cc32)CC1`: the GI50 in the assay with A498 was 13.6 µM (inactive); in the assay on A549, 12.6 µM (inactive); with EKVX, 14.5 µM (inactive); in the assay on HCT-116 it was 8.04 µM (inactive); with HOP-18, 9.89 µM (inactive); in the assay on HT-29, 2.44 µM (inactive). The GI50 in the assay on KM-20L2 was 2.27 µM (inactive); in the assay on Malme-3M it was 2.69 µM (inactive); in the assay on NCI-H226, 15.5 µM (inactive); with NCI-H23, 14.4 µM (inactive); in the assay on SF-295, 9.89 µM (inactive); with SF-539, 7.28 µM (inactive). Moreover, the GI50 with SK-MEL-2 was 7.93 µM (inactive); with SK-OV-3 it was 14.6 µM (inactive); in the assay on SN12C it was 12.2 µM (inactive); in the assay with SNB-75, 7.24 µM (inactive); in the assay on SNB-78, 15.7 µM (inactive); in the assay on U-251 it was 8.34 µM (inactive).

Take `CC(C)(C)c1cc(O)c2c(c1O)C(=O)CCC2`: the GI50 in the assay with A498 is 40.6 µM (inactive); in the assay on A549 it was 35.9 µM (inactive); with EKVX, 54.8 µM (inactive); in the assay on HCT-116 it was 31.7 µM (inactive); with HOP-18 it was 60.5 µM (inactive); in the assay with HT-29, 32.9 µM (inactive). Also, the GI50 in the assay with K562 was 30.3 µM (inactive); in the assay on KM-20L2 it was 40.1 µM (inactive); with NCI-H23, 28.9 µM (inactive); in the assay on SF-295, 30.2 µM (inactive); in the assay on SF-539 it was 42.3 µM (inactive); with SK-OV-3, 40.5 µM (inactive). For the same compound, the GI50 in the assay with SN12C is 41.8 µM (inactive); in the assay on SNB-75, 42.4 µM (inactive); in the assay on SNB-78 it was 32.7 µM (inactive); with U-251, 50.7 µM (inactive).

Turning to `[O-]/[N+](=C\c1ccccc1)[C@H](COCc1ccccc1)c1ccccc1`, the GI50 in the assay with A498 was > 100 µM (inactive); in the assay on A549, 51.6 µM (inactive); with EKVX, 25.1 µM (inactive); in the assay on HCT-116 it was 40.8 µM (inactive); in the assay with HOP-18, 20.3 µM (inactive); with HT-29, 71 µM (inactive). Also, the GI50 was 48.9 µM (inactive) with K562; > 100 µM (inactive) in the assay with KM-20L2; > 100 µM (inactive) in the assay with Malme-3M; 4.45 µM (inactive) in the assay with NCI-H23; 36 µM (inactive) with SF-295; > 100 µM (inactive) with SF-539. For the same compound, the GI50 is 27.3 µM (inactive) in the assay on SK-MEL-2; > 100 µM (inactive) in the assay with SK-OV-3; 74.3 µM (inactive) with SNB-75; 66.5 µM (inactive) in the assay with SNB-78; 80.9 µM (inactive) in the assay with U-251.

Regarding `CCC(=O)OC[n+]1ccc2c(C)c3[nH]c4ccc(OC)cc4c3c(C)c2c1`, the GI50 with A498 was 1.06 µM (active); in the assay on A549 it was 0.135 µM (active); with HCT-116 it was 0.0182 µM (active); in the assay with HOP-18, < 0.01 µM (active); with HT-29, 0.0568 µM (active); in the assay with K562, 0.132 µM (active). For the same compound, the GI50 in the assay with KM-20L2 is 0.117 µM (active); with Malme-3M, 0.627 µM (active); with NCI-H226, 0.348 µM (active); with NCI-H23, 0.22 µM (active); with SF-295 it was 0.0738 µM (active); in the assay with SF-539 it was 0.243 µM (active). Besides, the GI50 in the assay on SK-MEL-2 was 0.291 µM (active); in the assay with SN12C, < 0.01 µM (active); with SNB-75, 0.434 µM (active); in the assay with SNB-78, 0.693 µM (active); in the assay on U-251, 0.0547 µM (active).

Regarding `CC(NC(=O)C(=O)N/N=C1\C[C@@H](c2ccccc2)Nc2ccccc21)c1ccccc1` (stereo partly specified), the GI50 is > 100 µM (inactive) in the assay with A549; 17.1 µM (inactive) in the assay with EKVX; > 100 µM (inactive) with HCT-116; < 0.01 µM (active) in the assay with HOP-18; 80.7 µM (inactive) with HT-29; > 100 µM (inactive) in the assay with KM-20L2. For the same compound, the GI50 in the assay with Malme-3M was 20.5 µM (inactive); in the assay on NCI-H226, 10.4 µM (inactive); in the assay with NCI-H23, > 100 µM (inactive); with SF-295 it was > 100 µM (inactive); in the assay with SF-539, > 100 µM (inactive); with SK-MEL-2, 53 µM (inactive). Further, the GI50 with SN12C was 1.06 µM (active); in the assay with SNB-75, 10.7 µM (inactive); in the assay with SNB-78 it was > 100 µM (inactive); with U-251, > 100 µM (inactive).

Take `NCc1c(C(N)=O)ncn1Cc1ccccc1`: the GI50 in the assay on A498, with A549, with EKVX, in the assay with HCT-116, with HOP-18 and with HT-29 was > 100 µM (inactive) in each case. Besides, the GI50 with K562, in the assay with KM-20L2, with NCI-H23, in the assay on SF-295, with SF-539 and in the assay with SK-OV-3 was > 100 µM (inactive) each time. The GI50 in the assay with SN12C, with SNB-75, in the assay with SNB-78 and with U-251 was > 100 µM (inactive) throughout.

For the compound `Cc1ccc(Nc2nc(C)c(C(/C=C/c3ccc4c(c3)OCO4)=N/Nc3ccc([N+](=O)[O-])cc3[N+](=O)[O-])s2)c([N+](=O)[O-])c1`, the GI50 in the assay on A549 was 45.8 µM (inactive); in the assay with EKVX it was 24.5 µM (inactive); in the assay on HCT-116, 52.7 µM (inactive); with HOP-18, 7.69 µM (inactive); in the assay on HT-29, 50.6 µM (inactive); in the assay on K562, 14.3 µM (inactive). Moreover, the GI50 in the assay on KM-20L2 was 33.9 µM (inactive); with Malme-3M, 65.3 µM (inactive); in the assay on NCI-H226, 25 µM (inactive); in the assay with NCI-H23, 33.2 µM (inactive); in the assay on SF-295, 65 µM (inactive); with SF-539, 36.3 µM (inactive). Also, the GI50 was 28 µM (inactive) with SK-MEL-2; 26.7 µM (inactive) with SK-OV-3; 28 µM (inactive) in the assay on SN12C; 56.8 µM (inactive) with SNB-75; 50.7 µM (inactive) in the assay on SNB-78; 49.2 µM (inactive) in the assay on U-251.

For the compound `COC1(OC)c2ccccc2C2(O)c3ccccc3C(=O)C12` (stereo unspecified), the GI50 is 48.8 µM (inactive) with EKVX; 70.8 µM (inactive) in the assay with HCT-116; 52 µM (inactive) in the assay with HOP-18; 55.5 µM (inactive) with HT-29; 12.6 µM (inactive) with K562; 40.6 µM (inactive) with KM-20L2. Also, the GI50 in the assay with Malme-3M was 38 µM (inactive); in the assay with NCI-H226, 27 µM (inactive); in the assay with NCI-H23 it was 47.4 µM (inactive); with SF-295, 54 µM (inactive); in the assay with SF-539, 61 µM (inactive); with SK-MEL-2, 38.1 µM (inactive). Moreover, the GI50 in the assay with SK-OV-3 was 70.1 µM (inactive); in the assay on SN12C, 60.8 µM (inactive); in the assay on SNB-75 it was 29.3 µM (inactive); in the assay with SNB-78, 64.4 µM (inactive); in the assay on U-251, 43 µM (inactive).

In the case of `CC(=O)N(C)c1ccc2c(ccc[n+]2[O-])c1[N+](=O)[O-]`, the GI50 in the assay with A498, in the assay on A549, with EKVX, with HCT-116, with HOP-18 and in the assay with HT-29 was > 100 µM (inactive) throughout. For the same compound, the GI50 in the assay on K562, in the assay with KM-20L2, in the assay with Malme-3M, in the assay with NCI-H226, in the assay on NCI-H23 and with SF-295 was > 100 µM (inactive) each time. The GI50 with SF-539, in the assay on SK-MEL-2, in the assay on SN12C, in the assay with SNB-75, in the assay on SNB-78 and with U-251 was > 100 µM (inactive) throughout.

`CCN(C(C)=N)c1ccccc1`: the GI50 in the assay on A498 is 37.5 µM (inactive); with A549 it was > 100 µM (inactive); with EKVX, 52.8 µM (inactive); in the assay on HCT-116 it was 48.9 µM (inactive); in the assay on HOP-18 it was > 100 µM (inactive); with K562, 43.6 µM (inactive). For the same compound, the GI50 with KM-20L2 is > 100 µM (inactive); in the assay with Malme-3M, > 100 µM (inactive); with NCI-H226 it was 56.8 µM (inactive); with NCI-H23, 54.8 µM (inactive); with SF-295 it was 43.5 µM (inactive); in the assay with SF-539, > 100 µM (inactive). The GI50 with SK-MEL-2 was > 100 µM (inactive); in the assay on SK-OV-3, > 100 µM (inactive); with SN12C, 70 µM (inactive); in the assay on SNB-75 it was 37.5 µM (inactive); in the assay on SNB-78, > 100 µM (inactive); in the assay with U-251, > 100 µM (inactive).

As for `O=C(/C=C\c1cccc2ccccc12)c1ccc(Cl)cc1Cl`, the GI50 in the assay on A498 is > 100 µM (inactive); with A549, 62.1 µM (inactive); in the assay on EKVX it was 36.5 µM (inactive); in the assay with HCT-116, 18.7 µM (inactive); in the assay on HOP-18 it was 22.8 µM (inactive); in the assay on HT-29, 17.9 µM (inactive). Besides, the GI50 with K562 is 18.9 µM (inactive); in the assay on KM-20L2, 31 µM (inactive); in the assay with Malme-3M, 26.7 µM (inactive); in the assay with NCI-H226, > 100 µM (inactive); in the assay with NCI-H23, 40.6 µM (inactive); in the assay on SF-295 it was 20.5 µM (inactive). Moreover, the GI50 in the assay on SF-539 is 25.8 µM (inactive); with SK-OV-3, > 100 µM (inactive); in the assay on SN12C it was > 100 µM (inactive); in the assay on SNB-75, > 100 µM (inactive); with SNB-78, 20.3 µM (inactive); with U-251, 16.4 µM (inactive).

Consider `Nc1nc(N)c(-c2ccccc2)c(C(=O)Nc2nccs2)n1`, for which the GI50 with A549, in the assay with EKVX, in the assay on HCT-116, in the assay on HOP-18, in the assay on HT-29 and in the assay on K562 was > 100 µM (inactive) throughout. The GI50 with KM-20L2, with Malme-3M, with NCI-H226, with NCI-H23, in the assay on SF-295 and in the assay on SF-539 was > 100 µM (inactive) each time. In addition, the GI50 with SK-MEL-2, in the assay on SK-OV-3, in the assay with SN12C, in the assay with SNB-78 and in the assay on U-251 was > 100 µM (inactive) throughout.

The values above are taken from ChEMBL document CHEMBL1201862, “PubChem BioAssay data set” (2004).
